Reference: patent publication US9585387B1, “PEHAM dendrimers for use in agriculture” (Starpharma Pty Ltd, priority 2009, dated 2017)
In brackets after ≈: the same amount, converted by molar mass.

What was measured:
[1] = Solubility of active constituents in dendrimer solutions by HPLC (Example 26); format: physicochemical
Method: Four PEHAM dendrimers, each at 10 g/L and 100 g/L in water, were used for evaluation. A 15 g of each dendrimer was dissolved in distilled water and made accurately to 150 mL volume. Determination of pH was then made using a calibrated pH meter and electrode.
To prepare saturated solutions of active constituent in 100 g/L dendrimer solutions, 10 mL of each 100 g/L dendrimer solution was placed into a 50 mL test tube and 0.2 g of active constituent was then also added. The test tube was then briefly shaken to disperse the contents, before being placed in an ultrasonic water bath, and subjected to sonication for 30 mins at […] The test tube and contents were then cooled to […] and then a 2.0 mL aliquot was taken and filtered through a 0.45 μm PTFE membrane filter.
To prepare saturated solutions of active constituent in 10 g/L dendrimer solutions, 1.0 mL of each 100 g/L dendrimer solution was placed into a 50 mL test tube and a 9.0 mL aliquot of distilled water added and 0.2 g of active constituent was then also added. The test tube was then briefly shaken to disperse the contents, before being placed in an ultrasonic water bath, and subjected to sonication for 30 mins at […] The test tube and contents were then cooled to […] and then a 2.0 mL aliquot was taken and filtered through a 0.45 μm PTFE membrane filter
Each prepared and filtered solution was examined in a light box for Tyndall Scattering (light scattering by particles in a colloid or particles in a fine suspension). A visual observation was made and recorded for each solution. Ten active constituents that were selected to cover a range of water solubility were treated according to the method described here. A total of 200 filtered solutions were prepared.
High Performance Liquid Chromatography was used to analyse each active constituent in each dendrimer solution. Each saturated active constituent solution was freshly prepared for immediate analysis or frozen at <−15° C. where analysis could not take place within 2 hours of preparation. The following are details of the HPLC equipment used. For each active constituent a set of 4 calibration solutions was prepared 0 to 25 ppm. A sequence of injections comparing the peak area of the calibration solutions and the dendrimer solutions was then undertaken. The dendrimer solutions were diluted as required to maintain their respective peak area response within the calibration range. The active constituent concentration (ppm) in the dendrimer solution was determined by calculation: RF×SA×DF, where RF=Response Factor (concentration of calibration solution per unit of peak area, SA=Sample Peak Area (peak area of the sample solution), and DF=Dilution Factor (dilution of the sample solution). HPLC conditions were varied to ensure the optimum detection and separation of each active constituent from excipients.

physchem = format: physicochemical; conditions: water; at pH 7; trifluralin control without dendrimer; read-out: Solubility assessment by GC assay
Method: To a 10% w/w solution of agrochemical active dissolved in a suitable volatile organic solvent, (e.g., MeOH, DCM, EtOH, acetone or other appropriate solvent) was added a 10% w/w solution of dendrimer in either water or the same organic solvent as above. The mixture was left to stir for 2-4 h after which time the volatile organic solvent was then removed under reduced pressure to provide a 1:1 mixture of the active and dendrimer. This oily solution was then dissolved in water and filtered. Analysis of active content in the aqueous solution by HPLC or GC assay provided an estimate of the solubility increase due to the addition of the dendrimer.

[2] = tested on: Avena sativa (cv. Echidna); assay: Brownout of oat seedlings after track-sprayer application (Example 21); format: in vivo; conditions: concentrations of 0.1% v/v and above; with GrowChoice 450 g/L glyphosate
Method: The experiment tested whether the addition of dendrimers at various concentrations increased penetration into plant tissue and thus improved the rate of kill utilizing the herbicide glyphosate IPA (GrowChoice® 450 g/L present as the isopropylamine salt). Oats were selected for assessment of glyphosate efficacy because there is less genetic variation. All dosing was carried out at sublethal doses in order to witness a dose effect which is enhanced with dendrimer. A standard dose in the positive control would result in death of the oats and would be presumably replicated in the dendrimer treatments.
Avena sativa (cv. Echidna) was sown in 10 cm diameter pots filled with potting mix (AS 3743). Enough seeds were planted to ensure a minimum of seven seedlings per treatment group. Seeds were germinated in a temperature-controlled greenhouse (14° C.-25° C.) for 7 days. […]
The herbicide, glyphosate IPA (GrowChoice® 450 g/L present as the isopropylamine salt), was applied using an enclosed laboratory track-sprayer fitted with three 110° flat fan nozzles (Teejet XR11001-VS) spaced at 50 cm intervals across the boom. […] A total of 5 concentrations of the Example 2 G1-OH dendrimer (0.01, 0.05, 0.1, 0.2 & 0.5% v/v) were evaluated for enhancement of herbicidal effect at each of the rates of glyphosate tested (35, 70, 140 & 280 g ai/ha).
After 10 days the treated plants were assessed for % brownout. […]

| SMILES | Ratio of Active Ingredient in Dendrimer Solution (ppm) to Active Ingredient in Water (ppm) ([1]; 6-BAP, 10 g/L loading) | Ratio of Active Ingredient in Dendrimer Solution (ppm) to Active Ingredient in Water (ppm) ([1]; 6-BAP, 100 g/L loading) | Ratio of Active Ingredient in Dendrimer Solution (ppm) to Active Ingredient in Water (ppm) ([1]; Bifenthrin, 10 g/L loading) | Ratio of Active Ingredient in Dendrimer Solution (ppm) to Active Ingredient in Water (ppm) ([1]; Bifenthrin, 100 g/L loading) | Ratio of Active Ingredient in Dendrimer Solution (ppm) to Active Ingredient in Water (ppm) ([1]; Clomazone, 10 g/L loading) | Ratio of Active Ingredient in Dendrimer Solution (ppm) to Active Ingredient in Water (ppm) ([1]; Clomazone, 100 g/L loading) | Ratio of Active Ingredient in Dendrimer Solution (ppm) to Active Ingredient in Water (ppm) ([1]; Flumetsulam, 10 g/L loading) | Ratio of Active Ingredient in Dendrimer Solution (ppm) to Active Ingredient in Water (ppm) ([1]; Flumetsulam, 100 g/L loading) | Ratio of Active Ingredient in Dendrimer Solution (ppm) to Active Ingredient in Water (ppm) ([1]; Mcylobutanil, 10 g/L loading) | Ratio of Active Ingredient in Dendrimer Solution (ppm) to Active Ingredient in Water (ppm) ([1]; Mcylobutanil, 100 g/L loading) | Ratio of Active Ingredient in Dendrimer Solution (ppm) to Active Ingredient in Water (ppm) ([1]; Penconazole, 10 g/L loading) | Ratio of Active Ingredient in Dendrimer Solution (ppm) to Active Ingredient in Water (ppm) ([1]; Penconazole, 100 g/L loading) | Ratio of Active Ingredient in Dendrimer Solution (ppm) to Active Ingredient in Water (ppm) ([1]; Pendimethalin, 10 g/L loading) | Ratio of Active Ingredient in Dendrimer Solution (ppm) to Active Ingredient in Water (ppm) ([1]; Pendimethalin, 100 g/L loading) | Ratio of Active Ingredient in Dendrimer Solution (ppm) to Active Ingredient in Water (ppm) ([1]; Propaquizafop, 10 g/L loading) | Ratio of Active Ingredient in Dendrimer Solution (ppm) to Active Ingredient in Water (ppm) ([1]; Propaquizafop, 100 g/L loading) | Ratio of Active Ingredient in Dendrimer Solution (ppm) to Active Ingredient in Water (ppm) ([1]; Thiamethoxam, 10 g/L loading) | Ratio of Active Ingredient in Dendrimer Solution (ppm) to Active Ingredient in Water (ppm) ([1]; Thiamethoxam, 100 g/L loading) | Ratio of Active Ingredient in Dendrimer Solution (ppm) to Active Ingredient in Water (ppm) ([1]; Thidiazuron, 10 g/L loading) | Ratio of Active Ingredient in Dendrimer Solution (ppm) to Active Ingredient in Water (ppm) ([1]; Thidiazuron, 100 g/L loading) | also measured |
| --- | --- | --- | --- | --- | --- | --- | --- | --- | --- | --- | --- | --- | --- | --- | --- | --- | --- | --- | --- | --- | --- |
| CCC(COCC(O)CN(CC(=O)[O-])CC(=O)[O-])(COCC(O)CN(CC(=O)[O-])CC(=O)[O-])COCC(O)CN(CC(=O)[O-])CC(=O)[O-].[Na+].[Na+].[Na+].[Na+].[Na+].[Na+] (stereo not shown) [Example 10, [(C)=TMPTGE; (FF)=Et; (IF1)=OH; (BR1)=IDA; (TF)=CO2Na; G=1]] | 7 | 448 | 1 | 1 | 1 | 1 | 2 | 2 | 2 | 2 | 2 | 3 | 11 | 2 | 1 | 1 | 2 | 1 | 19 | 40 | – |
| CCCN(CCC)c1c([N+](=O)[O-])cc(C(F)(F)F)cc1[N+](=O)[O-] [trifluralin] | – | – | – | – | – | – | – | – | – | – | – | – | – | – | – | – | – | – | – | – | solubility (physchem): 0.22 µg/mL (≈ 0.656 µM) |
| CCC(COCC(O)CN(CCOC)CCOC)(COCC(O)CN(CCOC)CCOC)COCC(O)CN(CCOC)CCOC (stereo not shown) [Example 15, [(C)=TMPTGE; (FF)=Et; (IF1)=OH; (BR1)=DEA; (TF)=OMe; G=1]] | 3 | 475 | 9 | 1 | 1 | 1 | 1 | 2 | 2 | 3 | 2 | 12 | 44 | 41 | 1 | 1 | 2 | 2 | 5 | 17 | – |
| CCC(COCC(O)CN(CCN)CCN)(COCC(O)CN(CCN)CCN)COCC(O)CN(CCN)CCN (stereo not shown) [Example 14, [(C)=TMPTGE; (IF1)=OH; (BR1)=DETA; (TF)=Primary NH2; G=1]] | 10 | 2740 | 1 | 4 | 1 | 1 | 2 | 2 | 3 | 4 | 2 | 6 | 172 | 15 | 1 | 1 | 2 | 1 | 46 | 329 | – |
| CCC(COCC(O)CN(CCO)CCO)(COCC(O)CN(CCO)CCO)COCC(O)CN(CCO)CCO (stereo not shown) [Example 2, [(C)=TMPTGE; (FF)=Et; (IF1)=OH; (BR1)=DEA; (TF)=OH; G=1]] | 4 | 967 | 1 | 1 | 1 | 1 | 2 | 4 | 2 | 4 | 2 | 43 | 1 | 6 | 1 | 1 | 2 | 2 | 7 | 39 | rate of brownout [2]: did enhance the rate of brownout |
